By IC50 is commonly meant the concentration at which inhibition is half-maximal. A lower IC50 goes with inhibition by little substance.

In test [1] the test system is angiotensin II. To be noted: cited from earlier work.
The test system of test [2] is angiotensin II. To be noted: binding experiments, functional assays and in vivo tests; cited from earlier work.
For test [3], the target named is T1, rabbit aortic rings (angiotensin II contraction) (Oryctolagus cuniculus, UniProt P34976).
T1 construct: The thoracic aorta was removed, cleaned of adherent fat and connective tissue and then cut into 3-mm ring segments; from tissue; host or cells: rabbit thoracic aorta rings, endothelium removed
T1 sequence (P34976 1-359): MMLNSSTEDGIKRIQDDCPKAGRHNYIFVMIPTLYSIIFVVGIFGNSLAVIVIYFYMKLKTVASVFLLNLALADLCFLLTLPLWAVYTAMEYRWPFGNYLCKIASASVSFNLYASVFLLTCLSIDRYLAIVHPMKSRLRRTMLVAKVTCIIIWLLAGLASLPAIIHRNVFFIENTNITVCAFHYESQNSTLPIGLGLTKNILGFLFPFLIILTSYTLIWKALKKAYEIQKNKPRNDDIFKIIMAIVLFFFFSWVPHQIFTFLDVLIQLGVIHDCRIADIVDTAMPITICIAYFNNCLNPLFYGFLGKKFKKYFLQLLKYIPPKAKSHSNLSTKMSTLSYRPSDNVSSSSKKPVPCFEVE
As to the kind of experiment: Assay B: In Vitro Vascular Smooth Muscle Response for AII (rabbit aortic rings). It is filed as cell-based, rabbit (male New Zealand white). Particulars: rabbit aorta rings, antagonist 10^-5 M for 5 min, 37° C., read-out: Assay B pA2 (converted). The procedure: Assay B: In Vitro Vascular Smooth Muscle-Response for AII
The compounds of the invention were tested for antagonist activity in rabbit aortic rings. Male New Zealand white rabbits (2-2.5 kg) were sacrificed using an overdose of pentobarbital and exsanguinated via the carotid arteries. The thoracic aorta was removed, cleaned of adherent fat and connective tissue and then cut into 3-mm ring segments. The endothelium was removed from the rings by gently sliding a rolled-up piece of filter paper into the vessel lumen. The rings were then mounted in a water-jacketed tissue bath, maintained at 37° C., between moveable and fixed ends of a stainless steel wire with the moveable end attached to an FT03 Grass transducer coupled to a Model 7D Grass Polygraph for recording isometric force responses. The bath was filled with 20 ml of oxygenated (95% oxygen/5% carbon dioxide) Krebs solution of the following composition (mM): 130 NaCl, 15 NaHCO3, […], 1.2 NaH2 PO4, 1.2 MgSO4, 2.5 CaCl2, and 11.4 glucose. The preparations were equilibrated for one hour before approximately one gram of passive tension was placed on the rings. Angiotensin II concentration-response curves were then recorded (3×10^-10 to 1×10^-5 M). Each concentration of AII was allowed to elicit its maximal contraction, and then AII was washed out repeatedly for 30 minutes before rechallenging with a higher concentration of AII. Aorta rings were exposed to the test antagonist at 10^-5 M for 5 minutes before challenging with AII. Adjacent segments of the same aorta ring were used for all concentration-response curves in the presence or absence of the test antagonist. The effectiveness of the test compound was expressed in terms of pA2 values and were calculated according to H. O. Schild [Br. J. Pharmacol. Chemother., 2, 189-206 (1947)]. The pA2 value is the concentration of the antagonist which increases the IC50 value for AII by a factor of two. Each test antagonist was evaluated in aorta rings from two rabbits.

For test [4], the target named is smooth muscle angiotensin II receptor. Put plainly: Assay A: Angiotensin II Binding Activity (displacement of 125I-angiotensin II, rat uterine membrane preparation). Particulars: 50% displacement of specifically bound 125I-AII, rat uterine membranes, 25° C., 60 min, pH 7.5. On the procedure: Assay A: Angiotensin II Binding Activity
Compounds of the invention were tested for ability to bind to the smooth muscle angiotensin II receptor using a rat uterine membrane preparation. Angiotensin II (AII) was purchased from Peninsula Labs. ^125 I-angiotensin II (specific activity of 2200 Ci/mmol) was purchased from Du Pont-New England Nuclear. Other chemicals were obtained from Sigma Chemical Co. This assay was carried out according to the method of Douglas et al [Endocrinology, 106, 120-124 (1980)]. Rat uterine membranes were prepared from fresh tissue. All procedures were carried out at 4° C. Uteri were stripped of fat and homogenized in phosphate-buffered saline at pH 7.4 containing 5 mM EDTA. The homogenate was centrifuged at 1500×g for 20 min., and the supernatant was recentrifuged at 100,000×g for 60 min. The pellet was resuspended in buffer consisting of 2 mM EDTA and 50 mM Tris-HCl (pH 7.5) to a final protein concentration of 4 mg/ml. Assay tubes were charged with 0.25 ml of a solution containing 5 mM MgCl2, 2 mM EDTA, 0.5% bovine serum albumin, 50 mM Tris-HCl, pH 7.5 and ^125 I-AII (approximately 10^5 cpm) in the absence or in the presence of unlabelled ligand. The reaction was initiated by the addition of membrane protein and the mixture was incubated at 25° C. for 60 min. The incubation was terminated with ice-cold 50 mM Tris-HCl (pH 7.5) and the mixture was filtered to separate membrane-bound labeled peptide from the free ligand. The incubation tube and filter were washed with ice-cold buffer. Filters were assayed for radioactivity in a Micromedic gamma counter. Nonspecific binding was defined as binding in the presence of 10 μM of unlabelled AII. Specific binding was calculated as total binding minus nonspecific binding. The receptor binding affinity of an AII antagonist compound was indicated by the concentration (IC50) of the tested AII antagonist which gives 50% displacement of the total specifically bound ^125 I-AII from the high affinity AII receptor. Binding data were analyzed by a nonlinear least-squares curve fitting program.
(In a radioligand displacement assay an active substance lowers the binding of a labelled ligand.)

Setting [5] is: first of two values in the cell (rings from two rabbits).
Setting [6] is: second of two values in the cell (rings from two rabbits).

Each structure is given as a SMILES string. Like-named read-outs stand apart in the source and are kept apart here.

Regarding `CNCC(=O)N[C@@H](CCCN=C(N)N)C(=O)N[C@H](C(=O)N[C@@H](Cc1ccc(O)cc1)C(=O)N[C@H](C(=O)N[C@@H](Cc1cnc[nH]1)C(=O)N1CCC[C@H]1C(=O)N[C@@H](C)C(=O)O)C(C)C)C(C)C` [Saralasin], in the test with angiotensin II [1], the residual agonist activity result was “significant residual agonist activity”.
In the case of `CCCCc1nc(Cl)c(CC(=O)O)n1Cc1ccccc1[N+](=O)[O-]` [2-butyl-4-chloro-1-(2-nitrobenzyl)imidazole-5-acetic acid], the “specific competitive angiotensin II antagonist activity” value in the test on angiotensin II [2] is “specific competitive angiotensin II antagonist activity”.
For `CCCCc1nc(Cl)c(CC(=O)O)n1Cc1ccccc1Cl` [2-n-butyl-4-chloro-1-(2-chlorobenzyl)imidazole-5-acetic acid], in the test with angiotensin II [2], the “specific competitive angiotensin II antagonist activity” value was “specific competitive angiotensin II antagonist activity”.
Consider `CCCCc1nc(CCCC)n2c1C(=O)CCC2c1ccc(-c2ccccc2-c2nn[nH]n2)cc1` (stereo not drawn) [Example 5, 1,3-Dibutyl-5,6-dihydro-5-[2'-(1H-tetrazol-5-yl)[1,1'-biphenyl]-4-yl]imidazo[1,5-a]pyridin-8(5H)-one], for which the results for the Kb in test [3] (setting [5]) and in test [3] (setting [6]) were 13.8 nM and 7.08 nM, respectively. The same compound returned an IC50 in test [4] of 60 nM.
Turning to `CCCCc1nc(CCCC)n2c1C(=NO)CCC2c1ccc(-c2ccccc2-c2nn[nH]n2)cc1` (stereo not drawn) [Example 21, 1,3-Dibutyl-5,6-dihydro-N-hydroxy-5-[2'-(1H-tetrazol-5-yl)[1.1'-biphenyl]-4-yl]imidazol[1,5-a]pyridin-8(7H)-imine], the figures for the Kb in test [3] (setting [5]) and in test [3] (setting [6]) were 105 nM and 741 nM, respectively. Further, in test [4], the IC50 was found to be 66 nM.
For the compound `CCCCc1nc(CCCC)n2c1C(O)CCC2c1ccc(-c2ccccc2-c2nnn[nH]2)cc1` (stereo not drawn) [Example 4, 1,3-Dibutyl-5,6,7,8-tetrahydro-5-[2'-(1H-tetrazol-5-yl)[1,1'-biphenyl]-4-yl]imidazo[1,5-a]pyridin-8-ol], the Kb in test [3] (setting [5]) is 22.4 nM; in test [3] (setting [6]), 14.5 nM. For the same compound, in test [4], the concentration for half-maximal inhibition (IC50) amounted to 51 nM.
Regarding `CCCCc1ncc2n1C(c1ccc(-c3ccccc3-c3nnn[nH]3)cc1)CCC2=CC(=O)O` (stereo not drawn) [Example 16, [3-Butyl-6,7-dihydro-5-[2'-(1H-tetrazol-5-yl)[1,1'-biphenyl]-4-yl]imidazo[1,5-a]pyridin-8(5H)-ylidene]acetic acid], the values for the Kb in test [3] (setting [5]) and in test [3] (setting [6]) were 7.76 nM and 16.2 nM, respectively. In test [4], this compound returned a half-maximal inhibitory concentration (IC50) of 440 nM.

Values taken from patent publication US5674879A, “Compositions including and methods of using conformationally restricted angiotensin II antagonist” (G.D. Searle & Co., priority 1995, dated 1997).
